Experimental data: patent publication US7993916B2, “Methods for increasing definitive endoderm production” (Viacyte, Inc., priority 2007, dated 2011)

Test system: hESCs (CyT203 p36)
Details: EDTA 0.075 mM, PBS−/− wash, about 18 hr, activin A 100 ng/ml and Wnt3a 25 ng/ml, RPMI without FBS
Protocol: Cell cultures and culture conditions were substantially similar to that described above and in D'Amour et al. 2005 and 2006 supra. […] Samples of undifferentiated hESCs were taken prior to the start of the differentiation procedure. Plates were briefly washed with 2 ml of PBS either containing Ca^2+ or Mg^2+ or without Ca^2+ and Mg^2+ (PBS^−/−). In addition, the one plate which was washed with PBS^−/− also received ethylenediamine tetraacetic acid (EDTA) at 0.075 mM to reduce the concentration of Ca^2+ ions present in the media.

O=C(O)CN(CCN(CC(=O)O)CC(=O)O)CC(=O)O [EDTA, ethylenediamine tetraacetic acid]
increase in expression for the DE marker (CER): three-fold
increase in gene expression for mesendoderm markers (BRACH, NODAL): two-fold
